Results: patent US7442681B2, “Method of inhibiting vascular permeability” (University of Virginia Patent Foundation, priority 2004, dated 2008)
Where no end group is shown, it is not given here.

Experiments:
[1] = system: myosin light chain (MLC); test: MLC phosphorylation, Western blot, BAEC; format: cell-based, bovine; conditions: 25 ng/ml VEGF, 20 μg/ml peptide or 5 μM ML7
Experimental: FIG. 6. Regulation of myosin light chain (MLC) phosphorylation by PAK. FIG. 6A: confluent BAEC on FN were treated with vehicle only (+vehicle), 20 μg/ml control peptide (+con pep), 20 μg/ml PAK-blocking peptide (+PAK pep; SEQ ID NO:1), 5 μM ML7 (+ML7) with (+) or without (−) 25 ng/ml VEGF. […] FIG. 6B: as described in A, BAEC were pretreated with 20 μg/ml control peptide (+con pep) or PAK-blocking peptide (+PAK pep) followed by 25 ng/ml of VEGF, 25 ng/ml bFGF, 10 μM histamine, 0.1 units/ml thrombin, or 10 ng/ml of TNF. Upper row, anti-phospho-MLC (pMLC); middle row, total MLC (total MLC); and lower row, pMLC plus an antigenic phospho-peptide (pMLC+AP). […]
Western Blots—Confluent cells were starved in 0.5% serum for 18 h, treated as described in the legends to FIGS. 1, 2, 3 and 6, washed with cold PBS, and then harvested by scraping in cold lysis buffer (25 mM Tris, pH 7.4, 1% Nonidet P-40, 0.5% sodium deoxycholate, 137 mM NaCl, 50 μM EDTA, 10 μg/ml each aprotinin and leupeptin, 1 mM phenylmethylsulfonyl fluoride). […] Protein was transferred to polyvinylidene difluoride membrane, and blots were probed with primary antibodies (described under “Fluorescence Imaging”) followed by horseradish peroxidase-conjugated secondary antibodies (Jackson ImmunoResearch, Inc.). […]

[2] = system: murine lungs; test: Histology of murine lungs treated with peptide and LPS; format: in vivo; conditions: mice, peptide 1 mg ip, no LPS
Source text: FIG. 9. Histology of murine lungs treated with PAK blocking peptide and LPS. FIGS. 9A (200× magnification), 9B (400×), and 9C (200×) represent photomicrographic images. […] There is some phosphoPAK staining (visible as brown stain in the original color micrographs) present in epithelial structures, alveolar walls (composed of mixed cell types), and vessel endothelium and smooth muscle. Arrow indicates a normal small vessel with red blood cells and few circulating leukocytes. Tissues were counterstained with hematoxylin.
FIG. 10. Histology of murine lungs treated with PAK blocking peptide and LPS. FIGS. 10A (200× magnification), 10B (400×), and 10C (200×) represent photomicrographic images. […] Vessel sections (arrow) indicate that LPS highly increases the amount of pPAK in vessel walls, and also produces inflammatory enlargement of vessels, with an increase in numbers of recruited neutrophils and monocytes admixed with red blood cells and intravasating through vessel walls, an indicator of acute inflammation. Some alveolar tissues are completely eroded and filled with exudate and dead cells (FIG. 10C). Tissues were counterstained with hematoxylin.
FIG. 11. Histology of murine lungs treated with PAK blocking peptide and LPS. FIGS. 11A (200× magnification), 11B (400×), and 11C (200×) represent photomicrographic images. […]

[3] = system: BAEC; test: Paracellular pore formation assay, BAEC on filters; format: cell-based, bovine; conditions: with or without VEGF
Experimental: FIG. 5. Effects of PAK on remodeling of cell-cell junctions and the actin cytoskeleton. FIG. 5A: confluent BAECs on coverslips were serum-starved for 18 hours and then treated with 25 ng/ml VEGF. The cells were fixed and stained for phospho-PAK and F-actin. Images show phospho-PAK (pPAK) and F-actin (F-actin) at the indicated times after the addition of VEGF. White arrows indicate pores between cells. Scale bar=50μ. FIG. 5B: phospho-PAK (pPAK) and F-actin (F-actin) are shown in cells prepared and treated as described in FIG. 5A after 60 minutes with VEGF with peptide additions. […]
Monolayer Permeability and Paracellular Pore Formation Assays—Cells were plated onto FN-coated polycarbonate membranes (3.0-μ pore size; Transwell, Costar) at 6×10^4 cells/cm^2 and cultured for 4 days with medium changes every other day until confluence was reached. […] Medium was harvested from the lower chamber, and HRP activity was determined calorimetrically by absorbance at 490 nm to detect the […] reaction product after 15 minutes of incubation with 0.5 mM guaiacol, 50 mM Na2HPO4, and 0.6 mM H2O2. […] To quantify paracellular pore formation and correlate to permeability, the fixed cell monolayer-covered filters were stained for 2 hours with Coomassie Blue (0.25% in 1:1:2 of methanol:glacial acetic acid:double distilled (dd)H2O), destained in the same solution minus dye, rinsed in ddH2O, and air-dried. […]

In the case of `O=S(=O)(c1cccc2c(I)cccc12)N1CCCNCC1` [ML7], the “MLC phosphorylation induced by VEGF” value [1] is reported as “inhibited”.

In the case of “YGRKKRRQRRRGKPPAPPMRNTSTM [PAK-blocking peptide]”, the “lung histology, peptide-only” value [2] is reported as “equivalent to untreated mice”.

B1: PAK AID: PAK autoinhibitory domain, residues 83-149, cloned into the pDsRed1-N1 vector and expressed by transient transfection (protein, UniProt Q13153 83-149, looked up, fragment)
chain: HTIHVGFDAVTGEFTGMPEQWARLLQTSNITKSEQKKNPQAVLDVLEFYNSKKTSNSQKYMSFTDKS
modifications: DsRed fusion
B1 was tested, and the “formation of pores between adjacent cells” value [3] was “inhibited pore formation”.
